# Laboratory results as given in patent US9139546B2, “Tri-aryl/heteroaromatic cannabinoids and use thereof” (priority 2007, dated 2015).
# Read-outs that look alike come from different tables or passages of the source.
# What was measured:
# [1] = target: human CB1 receptor (Homo sapiens (Human), UniProt P21554); assay: Receptor binding assay, CB1 ([3H]CP 55,940 displacement); conditions: as repeated in the anti-inflammatory table; read-out: CB-1 Ki
# Procedure: (§1) The assays were carried out in 96 well plates obtained from Millipore, Inc. fitted with glass fiber filters (hydrophilic, GFC filters) having a pore size of 1.2μ. The filters were soaked with 0.05% polyethyleneimine solution and washed 5× with deionized water prior to carrying out the assays. The filtrations were carried out on a 96 well vacuum manifold (Millipore Inc.), the filters punched out with a pipette tip directly into scintillation vials at the end of the experiment and vials filled with 5 ml scintillation cocktail Ecolite (+) (Fisher Scientific). Counting was carried out on a Beckmann Scintillation Counter model LS6500. Drug solutions were prepared in DMSO and the radioligand was dissolved in ethanol.
# (§2) 50 mM TRIS-HCl, 5 mM MgCl2, 2.5 mM EDTA, 0.5 mg/ml fatty acid free bovine serum albumin, pH 7.4.
# (§3) The membranes were filtered and the filters washed 7× with 0.2 ml ice-cold incubation buffer and allowed to air dry under vacuum.
# (§4) Final data are presented as Ki±S.E.M. of n≧3 experiments.
# [2] = test system: NF-κB; assay: NF-κB SEAP reporter assay in TNF-α treated A549 cells; format: cell-based; conditions: Homo sapiens, read-out: NF-κB Reduction; for inhibition at 0.01 µM: 10 nM compound
# Procedure: (§5) Human lung adenocarcinoma cell line A549 (alveolar type II epithelial-like) cells (ATCC, Manassas, Va.) were maintained in growth media consisting of DMEM supplemented with 10% heat-inactivated fetal calf serum, 2 mM L-glutamine, 100 U/ml penicillin, and 100 μg/ml streptomycin.
# The plasmid pNF-κB-SEAP-NPT was kindly provided by Dr. Y. S. Kim of the Seoul National University. This plasmid contains a secreted alkaline phosphatase (SEAP) reporter gene coupled with the κB response element. Upon activation, NF-κB translocates to the nucleus and binds to the κB response element causing transcriptional activation. This activation drives production of the SEAP reporter, which is secreted into the cell culture supernatant where it can be measured. The neomycin phosphotransferase (NPT) region of the plasmid provides resistance to the antibiotic G-418.
# A549 cells were stably transfected with pNF-κB-SEAP-NPT using GeneJammer Transfection Reagent (Stratagene, La Jolla, Calif.) per manufacturer's protocol. G-418 (500 μg/ml) was added 24 hrs after transfection to select for stable transfection of NF-κB. Resistant colonies were selected and maintained in growth media supplemented with 500 μg/ml G-418.
# Previous experiments have shown A549 cells respond to the pro-inflammatory cytokine TNF-α by activation of the pro-inflammatory transcription factor, NF-κB. This effect is dose dependent with the maximum effect seen at 10 ng/mL TNF-α. Compounds with anti-inflammatory activity can be used to inhibit this activation of NF-κB.
# One day prior to treatment, transfected cells were seeded in 24 well culture plates at 6×10^4 cells/well in 1 mL of DMEM containing 1% FCS. On the day of treatment, media was aspirated. Following PBS wash, 1 mL of media containing 1% FCS, 10 ng/mL TNF-α, and varying concentrations of test compounds was added. Cell culture supernatant was collected at 18 hours. SEAP production was measured in 50 μL of supernatant using the Great EscAPe™ chemiluminescence kit (Clontech, Mountain View, Calif.). Briefly, samples were incubated at 65° C. for 30 minutes to inactivate endogenous alkaline phosphate. Following a 5-minute equilibration with assay buffer, chemiluminescent substrate and enhancer was added. Chemiluminescence was measured after 10 minutes. Higher levels of chemiluminescence result from increased SEAP production and correspond to NF-κB activity. Compounds capable of inhibiting NF-κB activation due to TNF-α are determined by a reduction in chemiluminescence values when cells are treated with TNF-α and test compound versus cells treated with TNF-α alone.
# [3] = test system: DMS-135 lung cancer cells; assay: Anti-cancer activity, WST-8 cell viability, DMS-135; format: cell-based; conditions: Homo sapiens
# Procedure: (§6) A representative group of compounds (shown below) was tested for anti-cancer activity against human lung (DMS-135 and H69AR), prostate (DU-145), colorectal (HCT-15), and pancreatic (BxPC-3) cancer cell lines using the methodology described below, providing results shown in Table 3.
# (§7) Human cancer cells DU-145, DMS-135, H69AR, HCT-15, and BxPC-3 (American Type Culture Collection, ATCC) were cultured in supplemented media according to the recommendations of the supplier. Cells lines were plated in 96-well flat-bottom plates at 70% confluency in a 100 μl total volume of supplemented media as indicated, and incubated overnight at 37° C. to allow for adherence. The cultures were inoculated with escalating amounts of drug and cell death was analyzed at 18 hours, using the BioTek Synergy 2 Multidetection Microplate Reader. The percentage of viable cells present in the culture at each time point was calculated by comparing the absorbance value at 450 nm from the WST-8 assay (Pojindo Molecular Technologies) for each condition with untreated control cells.
# [4] = test system: DU-145 prostate cancer cells; assay: Anti-cancer activity, WST-8 cell viability, DU-145; format: cell-based; conditions: Homo sapiens
# Procedure: as §6, §7
# [5] = target: human CB2 receptor (Homo sapiens (Human), UniProt P34972); assay: Receptor binding assay, CB2 ([3H]CP 55,940 displacement); conditions: for Ki: as repeated in the anti-inflammatory table, read-out: CB-2 Ki; for CB1/CB2: ratio of Ki CB-1 to Ki CB-2
# Procedure: as §1, §2, §3, §4
# [6] = test system: IL-6; assay: IL-6 level in supernatant of TNF-α treated A549 cells (multiplex bead immunoassay); format: cell-based, human; conditions: A549, 10 ng/mL TNF-α, 18 hours
# Procedure: as §5
# (§8) One day prior to treatment, A549 cells were seeded in 24 well culture plates at 6×10^4 cells/well in 1 mL of DMEM containing 1% FCS. On the day of treatment, media was aspirated. Following PBS wash, 1 mL of media containing 1% FCS, 10 ng/mL TNF-α, and varying concentrations of test compounds was added. Samples were collected at 18 hours and immediately transferred to −80° C. until the day of analysis.
# (§9) Levels of IL-6 and CXCL-8 were measured in cell culture supernatant using the Multiplex Bead Immunoassay Kit (Biosource, Camarillo, Calif.) paired with the Luminex® 200™ System. Standard solutions were prepared by serial dilution in a 50% media, 50% buffer solution so that they were in the same matrix as the samples. Standards and samples were mixed with a solution containing beads coated with capture antibodies specific for IL-6 and CXCL-8. Each capture antibody is bound to a specific bead population with a known internal fluorescence. The Luminex system can differentiate between internal fluorescence of beads allowing detection of multiple analytes in the same well. Following overnight incubation to allow complexation of protein with capture antibodies, wells were washed and beads resuspended in assay buffer. Biotinylated reporter antibodies specific for IL-6 and CXCL-8 were added and incubated for 1.5 hours. Unbound antibodies were removed by washing, and Streptavidin-Phycoerythrin (PE) was added and incubated 30 minutes. Streptavidin binds to biotin on the reporter antibodies. Unbound reagents were removed and samples were analyzed by the Luminex system. This system utilizes a flow cytometry system and lasers capable of exciting the internal dyes of the beads and PE. The machine separates signals from beads with different internal fluorescence and measures fluorescence intensity from PE bound to these beads through protein-antibody interactions. This fluorescence intensity is reported as the median of 100 beads per cytokine in each well. Concentrations were interpolated by fitting fluorescence intensity from unknowns to the standard curves.
# (§10) Cells treated with the pro-inflammatory cytokine TNF-α increase production of IL-6 and CXCL-8 when compared to cells not treated with TNF-α. Cells treated with anti-inflammatory compounds block the inflammatory effect of TNF-α and produce IL-6 and CXCL-8 levels similar to cells that are not treated with TNF-α.
# [7] = test system: BxPC-3 pancreatic cancer cells; assay: Anti-cancer activity, WST-8 cell viability, BxPC-3; format: cell-based; conditions: Homo sapiens, BXPC-3; cell death at 18 hours, WST-8; n.a. = no activity; read-out: BxPC-3 pancreatic EC50
# Procedure: as §6, §7
# [8] = test system: HCT-15 colorectal cancer cells; assay: Anti-cancer activity, WST-8 cell viability, HCT-15; format: cell-based; conditions: Homo sapiens
# Procedure: as §6, §7
# [9] = test system: CXCL-8; assay: CXCL-8 level in supernatant of TNF-α treated A549 cells (multiplex bead immunoassay); format: cell-based, human; conditions: A549, 10 ng/mL TNF-α, 18 hours
# Procedure: as §5, §8, §9, §10
# [10] = test system: H69AR lung cancer cells; assay: Anti-cancer activity, WST-8 cell viability, H69AR; format: cell-based; conditions: Homo sapiens
# Procedure: as §6, §7
# [11] = cell death at 18 hours, WST-8, n.a. = no activity, read-out: DMS-135 lung EC50
# [12] = DU-145, cell death at 18 hours, WST-8, n.a. = no activity, read-out: DU-145 prostate EC50
# [13] = HCT-15, cell death at 18 hours, WST-8, n.a. = no activity, read-out: HCT-15 colorectal EC50
# [14] = 18 h, read-out: H69AR lung EC50 (μM)
# [15] = 18 h, read-out: DMS-135 lung EC50 (μM)
# [16] = DU-145, 18 h, read-out: DU-145 prostate EC50 (μM)
# human CB1 receptor, sequence (P21554 whole entry): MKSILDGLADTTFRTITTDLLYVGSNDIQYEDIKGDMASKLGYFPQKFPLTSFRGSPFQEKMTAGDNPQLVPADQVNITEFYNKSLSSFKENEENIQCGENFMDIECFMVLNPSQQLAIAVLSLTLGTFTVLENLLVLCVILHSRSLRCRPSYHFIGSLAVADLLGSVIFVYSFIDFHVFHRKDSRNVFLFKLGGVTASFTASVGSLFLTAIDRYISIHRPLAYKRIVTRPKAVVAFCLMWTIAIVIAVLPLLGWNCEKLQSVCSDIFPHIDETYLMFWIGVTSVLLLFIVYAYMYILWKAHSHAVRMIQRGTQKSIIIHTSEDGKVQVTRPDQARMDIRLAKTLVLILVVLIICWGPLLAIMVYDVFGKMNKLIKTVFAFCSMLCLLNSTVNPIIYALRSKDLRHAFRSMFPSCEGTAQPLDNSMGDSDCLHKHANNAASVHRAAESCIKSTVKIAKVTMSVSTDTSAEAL
structure (smiles),measurement,setting,value
COc1cc(C(O)c2ccccc2)cc(OC)c1-c1cc(Cl)cc(Cl)c1 (stereo not drawn) [Compound 15],Ki,[1],> 1000 nM
same,inhibition at 0.1 µM,"[2]; 100 nM compound, A549, 10 ng/mL TNF-α, 18 hours",30%
same,EC50,[3]; [11],6.2 µM
same,EC50,[4]; [12],18.4 µM
same,Ki,[5],1.66 nM
same,CB1/CB2,[5],602
same,IL-6 Reduction,[6]; 100 nM compound,55%
same,EC50,[7],11.6 µM
same,EC50,[8]; [13],348 µM
"COc1cc(C(O)c2cccs2)cc(OC)c1-c1cc(Cl)cc(Cl)c1 (stereo not drawn) [Compound 16, (3′,5′-dichloro-2,6-dimethoxybiphenyl-4-yl)(thiophen-2-yl)methanol]",Ki,[1],> 1000 nM
same,inhibition at 4 µM,"[2]; 4 μM compound, A549, 10 ng/mL TNF-α, 18 hours",45%
same,Ki,[5],0.27 nM
same,CB1/CB2,[5],3700
same,IL-6 Reduction,[6]; 4 μM compound,90%
same,CXCL-8 Reduction,[9]; 4 μM compound,80%
"Cc1cccc(-c2ccc(C(=O)c3ccccc3)cc2O)c1 [Compound 25, (2-hydroxy-3′-methylbiphenyl-4-yl)(phenyl)methanone]",Ki,[1],> 1000 nM
same,inhibition at 0.01 µM,"[2]; A549, 10 ng/mL TNF-α, 18 hours",15%
same,Ki,[5],454 nM
same,CB1/CB2,[5],2.21
"O=C(c1ccccc1)c1cc(O)c(-c2cc(Cl)cc(Cl)c2)c(O)c1 [Compound 28, (3′,5′-dichloro-2,6-dihydroxybiphenyl-4-yl)(phenyl)methanone]",EC50,"[10]; cell death at 18 hours, WST-8, n.a. = no activity, read-out: H69AR lung EC50",2.4 µM
same,Ki,[1],27 nM
same,inhibition at 1 µM,"[2]; 1 μM compound, A549, 10 ng/mL TNF-α, 18 hours",35%
same,EC50,[3]; [11],11.8 µM
same,EC50,[4]; [12],5.4 µM
same,Ki,[5],2.94 nM
same,CB1/CB2,[5],9.18
same,IL-6 Reduction,[6]; 1 μM compound,15%
same,EC50,[7],4 µM
same,CXCL-8 Reduction,[9]; 1 μM compound,5%
same,EC50,[8]; [13],0.8 µM
"COc1cc(C(=O)c2cccs2)cc(O)c1-c1cc(Cl)cc(Cl)c1 [Compound 30, (3′,5′-dichloro-2-hydroxy-6-methoxybiphenyl-4-yl)(thiophen-2-yl)methanone]",Ki,[1],503 nM
same,inhibition at 1 µM,"[2]; A549, 18 h",40%
same,Ki,[5],2.32 nM
same,CB1/CB2,[5],217
same,IL-6 Reduction,[6]; 1 μM compound,45%
"O=C(c1cc(O)c(-c2cc(Cl)cc(Cl)c2)c(O)c1)c1cccs1 [Compound 31, (3′,5′-dichloro-2,6-dihydroxybiphenyl-4-yl)(thiophen-2-yl)methanone]",Ki,[1],> 1000 nM
same,inhibition at 0.01 µM,"[2]; A549, 10 ng/mL TNF-α, 18 hours",55%
same,Ki,[5],1.75 nM
same,CB1/CB2,[5],571
same,IL-6 Reduction,[6]; 10 nM compound,35%
"Cc1cccc(-c2ccc(C(C)(C)c3ccccc3)cc2O)c1 [Compound 39, 3′-methyl-4-(2-phenylpropan-2-yl)biphenyl-2-ol]",CB1/CB2,[5],8.87
"Cc1cccc(-c2c(O)cc(C(C)(C)c3ccccc3)cc2O)c1 [Compound 40, 3′-Methyl-4-(1-methyl-1-phenyl-ethyl)-biphenyl-2,6-diol]",CB1/CB2,[5],20.30
"CC(C)(c1ccccc1)c1cc(O)c(-c2cc(Cl)cc(Cl)c2)c(O)c1 [Compound 41, 3′,5′-dichloro-4-(2-phenylpropan-2-yl)biphenyl-2,6-diol]",EC50,[10]; [14],1.8 µM
same,EC50,[3]; [15],1.5 µM
same,EC50,[4]; [16],1.4 µM
same,CB1/CB2,[5],87.5
"CC(C)(c1ccccc1)c1ccc(-c2cc(Cl)cc(Cl)c2)c(O)c1 [Compound 42, 3′,5′-dichloro-4-(2-phenylpropan-2-yl)biphenyl-2-ol]",CB1/CB2,[5],142.1
"Cc1cccc(-c2c(O)cc(C(C)(C)c3cccs3)cc2O)c1 [Compound 43, 3′-methyl-4-(2-(thiophen-2-yl)propan-2-yl)biphenyl-2,6-diol]",CB1/CB2,[5],0.05
"CC(C)(c1cc(O)c(-c2cc(Cl)cc(Cl)c2)c(O)c1)c1cccs1 [Compound 44, 3′,5′-dichloro-4-(2-(thiophen-2-yl)propan-2-yl)biphenyl-2,6-diol]",CB1/CB2,[5],0.41
"CC(C)(c1ccc(-c2cc(Cl)cc(Cl)c2)c(O)c1)c1cccs1 [Compound 45, 3′,5′-dichloro-4-(2-(thiophen-2-yl)propan-2-yl)biphenyl-2-ol]",CB1/CB2,[5],0.46
COc1cc(C(C)(C)c2ccccc2)cc(O)c1-c1cc(Cl)cc(Cl)c1 [Compound 47],EC50,[10]; [14],12.2 µM
same,EC50,[3]; [15],0.9 µM
same,EC50,[4]; [16],1.4 µM
same,EC50,"[8]; HCT-15, 18 h, read-out: HCT-15 colorectal EC50 (μM)",4.2 µM
